From patent US7482363B2, “Piperidine derivatives useful as modulators of chemokine receptor activity” (AstraZeneca AB, priority 2002, dated 2009)

Experiments:
[1] = test system: Human eosinophils (eotaxin mediated chemotaxis); test: Human eosinophil chemotaxis; assay type: cell-based
Description: Human Eosinophil Chemotaxis
Human eosinophils were isolated from EDTA anticoagulated peripheral blood as previously described (Hansel et al., J. Immunol. Methods, 1991, 145, 105-110). The cells were resuspended at 10×10^6 ml^−1 in RPMI containing 200 IU/ml penicillin, 200 μg/ml streptomycin sulphate and supplemented with 10% HIFCS, at room temperature.
Eosinophils (700 μl) were pre-incubated for 15 mins at 37° C. with 7 μl of either vehicle or compound (100× required final concentration in 10% DMSO). The chemotaxis plate (ChemoTx, 3 μm pore, Neuroprobe) was loaded by adding 28 μl of a concentration of eotaxin (0.1 to 100 nM) containing a concentration of a compound according to the Examples or solvent to the lower wells of the chemotaxis plate. The filter was then placed over the wells and 25 μl of eosinophil suspension were added to the top of the filter. The plate was incubated for 1 hr at 37° C. in a humidified incubator with a 95% air/5% CO2 atmosphere to allow chemotaxis.
The medium, containing cells that had not migrated, was carefully aspirated from above the filter and discarded. The filter was washed once with phosphate buffered saline (PBS) containing 5 mM EDTA to remove any adherent cells. […] The number of eosinophils migrating was quantified according to the method of Strath et al., J. Immunol. […]

[2] = biological target: T1, human H1 receptor (Homo sapiens, UniProt P35367); test: Histamine H1 receptor binding, competition displacement of [3H]-pyrilamine; conditions: 1 nM [3H]-pyrilamine, membranes of recombinant CHO-K1 cells expressing the human H1 receptor; read-out: H1 antagonism pKi (converted)
T1 construct: purchased Euroscreen SA, Brussels, Belgium ES-390-M; host or cells: CHO-K1
Description: Histamine H1 receptor binding activity of compounds of the invention was assessed by competition displacement of 1 nM [3H]-pyrilamine (Amersham, Bucks, Product code TRK 608, specific activity 30 Ci/mmol) to 2 μg membranes prepared from recombinant CHO-K1 cells expressing the human H1 receptor (Euroscreen SA, Brussels, Belgium, product code ES-390-M) in assay buffer (50 mM Tris pH 7.4 containing 2 mM MgCl2, 250 mM sucrose and 100 mM NaCl) for 1 hour at room temperature.

T1 sequence (P35367 whole entry): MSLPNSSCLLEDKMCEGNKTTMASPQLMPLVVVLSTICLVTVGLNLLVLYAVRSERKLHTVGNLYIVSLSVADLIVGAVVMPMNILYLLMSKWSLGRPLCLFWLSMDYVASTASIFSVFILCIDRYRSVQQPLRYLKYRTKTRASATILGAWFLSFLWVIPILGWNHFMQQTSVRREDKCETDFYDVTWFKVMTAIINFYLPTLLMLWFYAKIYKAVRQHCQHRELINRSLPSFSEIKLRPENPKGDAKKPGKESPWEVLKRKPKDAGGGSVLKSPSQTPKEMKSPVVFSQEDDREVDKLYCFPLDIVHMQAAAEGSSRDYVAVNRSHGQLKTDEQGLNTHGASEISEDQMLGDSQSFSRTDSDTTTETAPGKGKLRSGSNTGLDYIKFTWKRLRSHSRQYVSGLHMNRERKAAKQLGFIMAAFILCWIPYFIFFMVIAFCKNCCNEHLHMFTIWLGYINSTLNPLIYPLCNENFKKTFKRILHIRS

Row | SMILES | % Inhibition (3 nM Human Eotaxin) [1] | Ki [2]
1 | COc1cccc(OC)c1C(C(=O)O)N1CCC(N2CCC(Oc3ccc(Cl)c(Cl)c3)CC2)CC1 (stereo not drawn) [Example 2, 4-(3,4-dichlorophenoxy)-α-(2,6-dimethoxyphenyl)-[1,4′-bipiperidine]-1′-acetic acid] | 90% | 158 nM
2 | Cc1cc(Cl)ccc1OC1CCN(C2CCN(C(C(=O)O)c3ccccc3)CC2)CC1 (stereo not drawn) [Example 3, 4-(4-chloro-2-methylphenoxy)-α-phenyl-[1,4′-bipiperidine]-1′-acetic acid] | 105% | 50.1 nM
